The target of data set [1] is T1, PARP1 (Homo sapiens (Human), UniProt P09874). As to the kind of experiment: PARP1 protein expression level in MDA-MB-231 cells. The conditions noted are these: 24 hours. It is filed as cell-based. The method, then:
The cells were collected into a 1.5 mL centrifuge tube, 25 μL of RIPA lysis buffer (containing 1× protease inhibitor cocktail) was added, and the cells were lysed on ice for 15 minutes and centrifuged at 12000 rpm/min at 4° C. for 10 minutes. The supernatant was collected and the protein content was determined using the BCA method. […] DC50 values were calculated using a four-parameter non-linear fitting model in Graphpad 8.3.0 software.

Data set [2] has as its target T1, PARP1. Nature of the data set: PARP1 protein expression level in MDA-MB-436 cells. It is filed as cell-based. The conditions noted are these: 100 nM, 24 hours. The method, then:
(§1) MDA-MB-436 cells were placed in a complete DMEM medium (supplemented with 15% FBS; 10 μg/mL Insulin; 16 μg/mL Glutathione and 1% penicillin-streptomycin solution), and cultured at 37° C. under CO2-free conditions. The cells in the logarithmic growth phase were collected, the cell density was adjusted to 2×10^5 cells/well with the culture medium, and the cells were added to a 6-well cell culture plate at a volume of 1 mL/well. The compound to be tested was prepared to 2-fold the final concentration, 1 mL of the compounds at different concentrations were added to administration wells, a medium containing 0.2% DMSO was added to control wells, and the plate was incubated for 24 hours at 37° C. The cells were collected into a 1.5 mL centrifuge tube, 25 μL of RIPA lysis buffer (containing 1× protease inhibitor cocktail) was added, and the cells were lysed on ice for 15 minutes and centrifuged at 12000 rpm/min at 4° C. for 10 minutes. The supernatant was collected and the protein content was determined using the BCA method. The protein sample to be tested was diluted to 0.8 mg/mL, PARP1 was detected using a fully automated protein expression quantitative analyzer (ProteinSimple), and the internal reference protein was 3-actin (both antibodies were from CST). The software (Compass for SW) of the fully automated protein expression quantitative analyzer was used to process the raw data and calculate the peak area and the PARP1 expression rate relative to the control group.
as §1, with “L-15” for “DMEM”, “mL/well and cultured overnight. On day 2, the” for “mL/well. The”, “group. DC50 values were calculated using a four-parameter non-linear fitting model in Graphpad 8.3.0 software.” for “group.”

Data set [3] relates to breast tumor cells MDA-MB-436. As to the kind of experiment: MDA-MB-436 cell activity test (CellTiter-Glo, 7 days). It counts as cell-based, human. The conditions noted are these: Homo sapiens; for IC50: MDA-MB-436, 168 h, MDA-MB-436 cells, 7 days incubation, read-out: IC50 (nM), MDA-MB-436 cell inhibitory activity; for inhibition at 10 µM: MDA-MB-436, MDA-MB-436 cells, read-out: Max inh. % 10 μM. The procedure: Breast tumor cells MDA-MB-436 were purchased from ATCC, the culture medium was Leibovitz's L-15+10% FBS, and the cells were cultured in a CO2-free incubator at 37° C. On day 1, the cells in the exponential growth phase were collected, and the cell suspension was adjusted to 4000 cells/135 μL with the culture medium. 135 μL of the cell suspension was added to each well of a 96-well cell culture plate and incubated overnight. On day 2, compounds at different concentrations were added, and the plate was placed in the incubator and incubated for 7 days. After the culture was completed, according to operation instructions for a CellTiter-Glo kit (Promega, G7573), 75 μL of CTG solution, which was already pre-melted and equilibrated to room temperature, was added to each well, and the mixture was uniformly mixed for 2 minutes using a microplate shaker. The plate was placed at room temperature for 10 minutes, and then […] signal values were determined using an Envision2104 plate reader (PerkinElmer). The inhibition rate was calculated using formula (1), where RLUcompound was the readout of the drug treated group, RLUcontrol was the average value of the solvent control group, and RLUblank was the average value of the cell-free well. The IC50 value was calculated using GraphPad Prism software.
In general terms: Cellular ATP, detected with luciferase, serves as a proxy for viable cell number.

Data set [4] in a line: Pharmacokinetic test in mice. It is filed as in vivo, ICR mice. The procedure: 8.1 Experimental animals: male ICR mice, 20 to 25 g, 18 mice/compound, purchased from Chengdu Ddossy Experimental Animals Co., Ltd.
8.2 Experimental design: on the day of the experiment, 36 ICR mice were randomly grouped according to their body weights. The animals were fasted with water available for 12 to 14 h one day before the administration, and were fed 4 h after the administration.
Before and after the administration, 0.06 mL of blood was taken from the orbit of the animals under isoflurane anesthesia and placed in an EDTAK2 centrifuge tube. The blood was centrifuged at 5000 rpm and 4° C. for 10 min to collect plasma. The blood collection time points for the intravenous group and intragastric administration group were: 0 min, 5 min, 15 min, 30 min, 1 h, 2 h, 4 h, 6 h, 8 h, and 24 h. Before analysis and detection, all samples were stored at −80° C. The samples were analyzed quantitatively by LC-MS/MS.

Data set [5] in a line: Pharmacokinetic test in rats. It is filed as in vivo, SD rats. The procedure:
7.1 Experimental animals: male SD rats, about 220 g, 6-8 weeks old, 6 rats/compound, purchased from Chengdu Ddossy Experimental Animals Co., Ltd.
7.2 Experimental design: on the day of the experiment, 12 SD rats were randomly grouped according to their body weights. The animals were fasted with water available for 12 to 14 h one day before the administration, and were fed 4 h after the administration.
Before and after the administration, 0.15 mL of blood was taken from the orbit of the animals under isoflurane anesthesia and placed in an EDTAK2 centrifuge tube. The blood was centrifuged at 5000 rpm and 4° C. for 10 min to collect plasma. The blood collection time points for the intravenous administration group and intragastric administration group were: 0, 5 min, 15 min, 30 min, 1 h, 2 h, 4 h, 6 h, 8 h, and 24 h. Before analysis and detection, all samples were stored at −80° C. The samples were analyzed quantitatively by LC-MS/MS.

[6] abbreviates: male, ICR, mouse, iv, i.v. 2.5 mg/kg, plasma.
Setting [7] is: male, SD, rat, iv, i.v. 2.5 mg/kg, plasma.

This is an account of results in patent US20250222116A1, “PARP-1 DEGRADATION AGENT AND USE THEREOF” (XIZANG HAISCO PHARMACEUTICAL CO., LTD., priority 2021, published 2025).

In general, IC50 refers to the concentration needed to halve the response being measured. The AUC(0-t) is the area under the concentration-time curve up to a stated or last time point. A lower AUC(0-t) goes with low exposure. A word on the clearance: it is the rate of elimination divided by the concentration.

T1 sequence (P09874 whole entry): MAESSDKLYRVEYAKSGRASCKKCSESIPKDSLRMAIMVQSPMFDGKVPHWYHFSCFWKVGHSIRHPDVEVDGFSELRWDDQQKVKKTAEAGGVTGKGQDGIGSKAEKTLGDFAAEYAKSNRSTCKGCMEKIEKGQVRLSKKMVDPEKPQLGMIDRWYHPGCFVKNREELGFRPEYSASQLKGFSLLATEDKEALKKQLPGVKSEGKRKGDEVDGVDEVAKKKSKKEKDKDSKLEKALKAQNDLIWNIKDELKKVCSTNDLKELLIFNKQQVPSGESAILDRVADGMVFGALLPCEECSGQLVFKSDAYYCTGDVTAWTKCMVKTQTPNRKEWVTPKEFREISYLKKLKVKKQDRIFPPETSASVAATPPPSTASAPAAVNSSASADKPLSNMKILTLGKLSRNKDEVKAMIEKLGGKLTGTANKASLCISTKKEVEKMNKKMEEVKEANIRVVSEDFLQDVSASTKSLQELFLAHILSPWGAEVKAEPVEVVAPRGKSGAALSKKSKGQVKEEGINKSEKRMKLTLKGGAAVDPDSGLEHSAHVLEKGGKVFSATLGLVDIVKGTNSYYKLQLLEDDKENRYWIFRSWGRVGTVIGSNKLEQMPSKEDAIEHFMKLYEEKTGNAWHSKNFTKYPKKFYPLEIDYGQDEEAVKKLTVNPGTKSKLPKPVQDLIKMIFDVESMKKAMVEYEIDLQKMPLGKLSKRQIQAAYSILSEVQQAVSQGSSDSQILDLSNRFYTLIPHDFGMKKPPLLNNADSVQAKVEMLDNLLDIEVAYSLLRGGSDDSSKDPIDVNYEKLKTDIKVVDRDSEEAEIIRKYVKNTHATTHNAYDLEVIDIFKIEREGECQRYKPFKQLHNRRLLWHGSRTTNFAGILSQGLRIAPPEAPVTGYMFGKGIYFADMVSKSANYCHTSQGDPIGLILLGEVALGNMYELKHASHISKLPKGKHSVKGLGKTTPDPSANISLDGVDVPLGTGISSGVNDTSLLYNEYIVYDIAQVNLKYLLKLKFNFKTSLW

The compound `CCc1cc2ncc(CN3CCN(c4ccc(C(=O)NC5CN(C6CCN(c7ccc8c(c7)C(=O)N(C7CCC(=O)NC7=O)C8=O)CC6)C5)nc4)CC3)cc2[nH]c1=O` (stereo not shown) [Compound 5, N-(1-(1-(2-(2,6-dioxopiperidin-3-yl)-1,3-dioxoisoindolin-5-yl)piperidin-4-yl)azetidin-3-yl)-5-(4-((7-ethyl-6-oxo-5,6-dihydro-1,5-naphthyridin-3-yl)methyl)piperazin-1-yl)picolinamide] showed a DC50 in data set [1] of 0.12 nM.

In the case of `CCc1cc2ncc(CN3CCN(c4ccc(C(=O)Nc5cnn(C6CCN(c7ccc8c(c7)C(=O)N(C7CCC(=O)NC7=O)C8=O)CC6)c5)nc4)CC3)cc2[nH]c1=O` (stereo not shown) [Compound 57, N-(1-(1-(2-(2,6-dioxopiperidin-3-yl)-1,3-dioxoisoindolin-5-yl)piperidin-4-yl)-1H-pyrazol-4-yl)-5-(4-((7-ethyl-6-oxo-5,6-dihydro-1,5-naphthyridin-3-yl)methyl)piperazin-1-yl)picolinamide], the “PARP1 degradation rate @ 100 nM” value in data set [2] amounted to 80.6%. In data set [3], the concentration for half-maximal inhibition (IC50) came out at 15.8 nM and the inhibition at 10 µM is 84%.

As for `CCc1cc2ncc(CN3CC=C(c4ccc(C(=O)Nc5cnn(C6CCN(c7ccc8c(c7)C(=O)N(C7CCC(=O)NC7=O)C8=O)CC6)c5)nc4)CC3)cc2[nH]c1=O` (stereo not shown) [Compound 58, N-(1-(1-(2-(2,6-dioxopiperidin-3-yl)-1,3-dioxoisoindolin-5-yl)piperidin-4-yl)-1H-pyrazol-4-yl)-1′-((7-ethyl-6-oxo-5,6-dihydro-1,5-naphthyridin-3-yl)methyl)-1′,2′,3′,6′-tetrahydro-[3,4′-bipyridine]-6-carboxamide], the pharmacokinetic characteristics entry in data set [4] and in data set [5] was “good pharmacokinetic characteristics” throughout. In addition, the F is listed as 15.6% in data set [4] (i.g. 10 mg/kg) and 6.2% in data set [5] (i.g. 10 mg/kg). Moreover, the exposure AUC(0-t) in data set [4] (setting [6]) is 224000 ng·h/mL; in data set [4] (male, ICR, mouse, po, i.g. 10 mg/kg, plasma), 140000 ng·h/mL; in data set [5] (setting [7]), 51400 ng·h/mL; in data set [5] (male, SD, rat, po, i.g. 10 mg/kg, plasma), 12800 ng·h/mL. In addition, the results for the clearance in data set [4] (setting [6]) and in data set [5] (setting [7]) were 0.0968 mL/min/kg and 0.713 mL/min/kg, respectively. For the same compound, the Vd in data set [4] (male, ICR, mouse, iv, i.v. 2.5 mg/kg, plasma, read-out: Vdss) came out at 0.189 L/kg; in data set [5] (male, SD, rat, iv, i.v. 2.5 mg/kg, plasma, read-out: Vdss), 0.366 L/kg. For the same compound, in data set [2], the “PARP1 degradation rate @ 100 nM” value was determined as 79.6%. In data set [3], the half-maximal inhibitory concentration (IC50) was found to be 6 nM. Besides, the inhibition at 10 µM in data set [3] was 87.2%.

On to `CCc1cc2ncc(CN3CCN(c4ccc(C(=O)NC5CCC(Oc6ccc7c(c6)C(=O)N(C6CCC(=O)NC6=O)C7=O)CC5)nc4)CC3)cc2[nH]c1=O` (stereo not shown) [Compound 66, N-((1r,4r)-4-((2-(2,6-dioxopiperidin-3-yl)-1,3-dioxoisoindolin-5-yl)oxy)cyclohexyl)-5-(4-((7-ethyl-6-oxo-5,6-dihydro-1,5-naphthyridin-3-yl)methyl)piperazin-1-yl)picolinamide], for which the “PARP1 degradation rate @ 100 nM” value in data set [2] was 76.4%. In data set [3], the IC50 came to 97.8 nM and the inhibition at 10 µM came to 93.2%.
